Ends that are not written are not given here. Cy5.5 = near infrared dye label
Key:
colonic dysplasia = assay: In vivo fluorescence endoscopy of colon in CPC;Apc mouse; conditions: for fluorescence signal from dysplasia on endoscopy: CPC;Apc mouse colon
Excerpt: A genetically engineered mouse model (Cpc;Apc) that spontaneously forms adenomatous polyps in the colon was used for this study and handled according to Institutional Guidelines. The colons of anesthetized mice were first cleaned with water before imaging with a small animal endoscope (Karl Storz Veterinary Endoscope) using the white light channel to locate polyps by identifying anatomic landmarks and the distance of the endoscope tip from the anus. […] Fluorescent and reflectance images were then collected with the same endoscope set to the appropriate channels. Once in vivo imaging was complete, four of the mice used in the study were euthanized and colons harvested. Polyps and flat lesions detected during fluorescence imaging were located, removed, and processed for histology (H&E).
These mice are genetically-engineered to spontaneously develop colonic dysplasia, and the colonic lesions that develop are molecularly and histologically similar to that seen in human disease, making these mice a good model for monitoring cancer development. Because the extra-cellular domain of claudin-1 is completely homologous between human and mouse, peptides developed for human targets can be directly used in mouse imaging experiments. […] CPC;Apc mice were imaged at ˜3 months of age when they first begin to develop dysplasia. […] After imaging is completed, mice were euthanized, and the colons were resected. Based on the location of dysplastic lesions determined using fluorescence images collected with endoscopy, a pathologist measured the depth of dysplasia on histology, as shown by the dashed arrow in FIG. 7E. […] Images are obtained from mice over at least three sessions separated by 1 week to monitor for cancer progression.

claudin-1 (CLDN1) = molecular target: T1, claudin-1 (CLDN1) (Homo sapiens, UniProt O95832); assay: siRNA knockdown of CLDN1 expression, peptide and antibody binding to SW620 cells; format: cell-based
T1 construct: endogenous in cells; host or cells: SW620 human colorectal adenocarcinoma cells
T1 sequence (O95832 1-211): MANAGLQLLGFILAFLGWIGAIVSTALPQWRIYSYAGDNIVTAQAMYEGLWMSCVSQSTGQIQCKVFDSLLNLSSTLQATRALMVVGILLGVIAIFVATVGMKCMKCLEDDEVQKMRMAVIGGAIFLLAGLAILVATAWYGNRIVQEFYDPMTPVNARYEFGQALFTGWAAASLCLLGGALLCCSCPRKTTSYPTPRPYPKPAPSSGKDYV
Procedure: CLDN1 expression was knocked down using Dharmacon On-Target Plus SMARTpool Human CLDN1 siRNA (Thermo Scientific) according to the manufacturer's protocol. SW620 cells were plated overnight on coverslips in a 12-well plate at 0.2×10^6 cells/mL. The following day, cells were transfected with 3 μL DharmaFECT1 and either 25 nM CLDN1 or control siRNA. After 72 h, transfected cells were analyzed for CLDN1 expression through immunocytochemistry, a peptide binding study, or a Western blot of the cell lysate. For the immunocytochemistry experiment, cells were fixed with ice-cold methanol for 20 minutes at −20° C., blocked for 1 h at RT with PBS+2% BSA, stained with anti-human CLDN1 antibody at 5 μg/mL for 1 h at RT, then with goat anti-Rabbit AF488 (1:500) for 1 h at RT before being mounted on slides with DAPI with Prolong Gold. siRNA-transfected cells were also stained with 5 μM RTS-Cy5.5 or SPT-Cy5.5 for 30 minutes at 4° C., fixed with 4% PFA for 10 minutes at RT, then mounted on slides. Simultaneously, transfected cells were lysed with RIPA buffer containing Roche Mini-Complete EDTA-free Protease Inhibitor for 10 minutes on ice, collected and spun at 20,000×g for 10 minutes at 4° C. Supernatant was saved, total protein concentration quantified via a BCA assay, and 10 ug protein of each sample run on a Novex 4-20% 1.5 mm protein gel before transferring to a PVDF membrane. The membrane was blocked with PBST+5% non-fat milk for 1 h at 4° C., stained with either rabbit anti-CLDN1 Ab or mouse anti-tubulin Ab at 4° C. overnight, then with anti-rabbit HRP (1:500, for CLDN1) or anti-mouse HRP (1:500, for tubulin) for 1 h at RT before developing.
The specificity of peptide binding was validated on siRNA knockdown. […] These cells were transfected with siRNA to knockdown cell surface expression of claudin-1. […] The fluorescence intensities (mean±std) are shown (FIG. 2H). […] Given the experimental design and mean-squared-errors shown in FIG. 2H, with triplicate slides we have 98% power to obtain P<0.01 for interactions that show a 3-fold difference of differences.

T84 monolayers = assay: Transepithelial electrical resistance (TEER) and tight junction immunofluorescence; format: cell-based, human
Procedure: T84 human colon carcinoma cells were grown in a 1:1 mixture of DMEM and Ham's F-12 culture medium supplemented with 5% FBS. To establish polarized monolayer, the cells were plated on transwell permeable polyester supports (1.12 cm^2, pore size 3 μm, Costar) until they reached confluence after ˜3-4 days, as determined by an increase in TEER.43 The cells were continually grown on transwell supports until the TEER reached ˜2000 Ω-cm^2. […] TEER was then measured at 6, 12 and 24 hours. The cells were fixed with 4% PFA for 12 min. After brief washing, 1% SDS in PBS was used to permeabilize the cells. These procedures were followed by 3% goat serum in PBS blocking for 30 min. Mouse anti-zonula occludens-1 (anti-ZO-1) (1:250, Life Technologies) and rabbit anti-claudin-1 (1:200, Life Technologies) antibodies were diluted in block buffer and incubated in humidity box overnight at 4° C. and fluorescent secondary antibodies were diluted to 1:1000 and incubated for 1 hour at RT. All images were obtained using Nikon A1 confocal microscope (MIL, University of Michigan).
We evaluated the effect of peptide binding on tight junction function using a polarized monolayer of T84 cells plated on transwell supports.

human colonic tissues = assay: Ex vivo staining of human colonic tissue sections
Procedure: Human colon tissue was obtained through consenting patents at the University of Michigan Hospital. Tissue was frozen in OCT and sectioned 10 μm thick using a Cryostat. The sections were thawed before staining with 10 μM RTS*-Cy5 for 15 minutes at RT. Tissues were then washed with PBS, fixed with 4% PFA for 10 min at RT, and counterstained with DAPI with Prolong Gold. Fluorescence was imaged and quantified as outlined above.
Specimens of normal colonic mucosa, adenoma, and adenocarcinoma from the right side (proximal) of the colon were obtained from routine surveillance colonoscopy and surgically removed by endoscopic mucosal resection. The tissues were frozen in OCT (Sakura Finetek), cut in 10 μm sections, and incubated with pep*-Cy5 (5 μM) in 1×PBS for 15 minutes at RT. The sections were washed 3× with PBS. Confocal fluorescence images were collected from these sections with DAPI, FITC and Cy5 filter sets (Leica TCS SP5 Microsystems).
The mean fluorescence intensities (±SEM) from binding of pep*-Cy5 were measured for normal colonic mucosa (n=4, 7±2 AU), adenoma (n=6, 26±4 AU) and adenocarcinoma (n=5, 31±4 AU), P<0.001, unpaired t-test (FIG. 6, scale bar 500 μm). […] We found pep*-Cy5 and anti-claudin-1 mAb to stain colonic adenomas and adenocarcinomas in 11/12 (92%) and 10/10 (100%) sections, respectively.

SW620 cells = assay: Confocal signal and photostability of Cy5- versus FITC-labeled peptide on cells; format: cell-based, human; conditions: for mean (±std) fluorescence intensity: 10 μM, 4° C., 1 hour, n=6 cells
Procedure: We incubated pep*-Cy5 (RTS*-Cy5) and pep*-FITC ([…]) (10 μM) (FIG. 4A) with human colon adenocarcinoma (SW620) cells that over-express Claudin-1 at 4° C. for 1 hour. A supercontinuum “white light” laser provided continuous excitation at 1.5 mW for both λex=647 and 488 nm. Confocal images (Leica TCS SP5 Microsystems) were collected using Cy5 and FITC filters every 2 min. At time 0 min, peptide (RTS*-Cy5) binding to the cell surface (arrow) is shown, scale bar 10 μm (FIG. 4B). The mean (±std) fluorescence intensities for the Cy5 and FITC-labeled peptides, measured from n=6 cells, were 58.4±3.7 and 3.1±0.6 A.U. respectively, resulting in ˜20-fold increase in signal using the NIR fluorophore. We also found a 8.5% reduction in fluorescence intensity for pep*-Cy5 in comparison to 32% for pep*-FITC at 12 min, resulting ˜4-fold improvement in photostability (FIG. 4C).

[1] = tested on: human colonic adenocarcinoma cells (SW620, SW480, HT29, HCT116); assay: Cell binding assay on adenocarcinoma cell panel and co-localization with anti-claudin-1 antibody; format: cell-based
Procedure: SW620, SW480, and HT29 cells were plated at 0.5×10^6 cells/mL on coverslips on 12-well plates. The following day, the cells were treated with either 10 μM either RTS*-Cy5.5 or SPT*-Cy5.5 for 1 h at 4° C., fixed with 4% PFA for 10 minutes at RT, then counterstained with DAPI with Prolong Gold. Fluorescent images were collected and analyzed as detailed above. Statistical analysis was performed using a one-way ANOVA analysis on GraphPad Prism.
The cells were incubated with the peptide (10 μM) at 4° C. for 1 hour, washed 3× with PBS, fixed with 4% PFA, and mounted with ProLong Gold containing DAPI (Invitrogen). The mean (±std) fluorescence intensities were quantified using custom Matlab software (FIG. 5F). Levels of claudin-1 expression from cytosol (C) and membrane (M) of cells are shown on western blot (FIG. 5G). The cells were then incubated with 1:50 dilution of primary anti-claudin-1 rabbit mAb (4267, Invitrogen) for 1 hour at 4° C., and washed 3× with PBS at RT. The cells were further incubated with 1:500 dilution of […] labeled with Alexa Fluor 488 (Invitrogen) for 1 hour at RT. Co-localization of peptide (red) and antibody (green) binding to SW620 cells can be appreciated on the overlay fluorescence image (FIG. 5H). A Pearson's correlation of ρ=0.56 was calculated using custom Matlab software.

[2] = at 12 min of continuous excitation

Question: What does the source list for “SPT*-Cy5.5: control scrambled sequence SPTPSSR labeled with Cy5.5 via the GGGSK linker (SPTPSSRGGGSK-{Cy5.5}) [reference compound]”?
Answer: fluorescence signal from dysplasia on endoscopy (colonic dysplasia): minimal signal; signal for siCL versus siCLDN1 cells (claudin-1 (CLDN1); SW620 cells, control siRNA versus CLDN1 siRNA, 3 replicate slides): 0.80 fold-change; binding to the surface of SW620 cells (claudin-1 (CLDN1); confocal microscopy): minimal binding

Question: With SPTPSSR [SPT*] as the substance, how does the “fluorescence signal from dysplasia on endoscopy” value (colonic dysplasia) read?
Answer: minimal signal

Question: And the “T/B ratio (mean±SD)” value (colonic dysplasia; n=10 dysplasias, topical 100 μM, 5 minutes)?
Answer: 1.19±0.23

Question: What about the “trans-epithelial electrical resistance (TEER)” value (T84 monolayers; 5 μM peptide, up to 24 hours) of the same substance?
Answer: high

Question: What about the “effect on tight junction function and ZO-1 distribution” value (T84 monolayers; 24 hours after peptide incubation) of the same substance?
Answer: neither peptide alters tight junction function or ZO-1 distribution

Question: For “pep*-Cy5: RTSPSSR labeled at the C-terminus with Cy5 via a GGGSK linker”, which “mean fluorescence intensity (±SEM)” value (human colonic tissues; adenocarcinoma, n=5) is on record?
Answer: 31±4 AU

Question: What about the sections stained (human colonic tissues; adenocarcinomas, 10/10 sections) of the same substance?
Answer: 100%

Question: And the “mean fluorescence intensity (±SEM)” value (human colonic tissues; adenoma, n=6)?
Answer: 26±4 AU

Question: And the sections stained (human colonic tissues; colonic adenomas, 11/12 sections)?
Answer: 92%

Question: And the “mean fluorescence intensity (±SEM)” value (human colonic tissues; normal colonic mucosa, n=4)?
Answer: 7±2 AU

Question: What about the “mean (±std) fluorescence intensity” value (SW620 cells) of the same substance?
Answer: 58.4±3.7 A.U.

Question: And the “increase in signal using Cy5 label versus FITC” value (SW620 cells; SW620 cells)?
Answer: ~20 fold

Question: What about the “improvement in photostability compared to FITC-labeled peptide” value (SW620 cells; [2]) of the same substance?
Answer: ~4 fold

Question: What about the “reduction in fluorescence intensity” value (SW620 cells; [2]) of the same substance?
Answer: 8.5%

Question: And the “binding to cell surface” value ([1]; 10 μM, 4° C., 1 hour, control tested on SW620 cells)?
Answer: specific binding

Question: What about the “Pearson's correlation ρ, co-localization with anti-claudin-1 antibody” value ([1]; SW620 cells) of the same substance?
Answer: 0.56

Question: With “pep*-FITC: RTSPSSR labeled at the C-terminus with FITC via a GGGSK linker” as the substance, how does the “mean (±std) fluorescence intensity” value (SW620 cells) read?
Answer: 3.1±0.6 A.U.

Question: And the “reduction in fluorescence intensity” value (SW620 cells; [2])?
Answer: 32%
